Experimental findings from publication PMC8811960, “A Novel 2-Carbon-Linked Dimeric Artemisinin With Potent Antileukemic Activity and Favorable Pharmacology” (Frontiers in Oncology, 2022) are described below.

Where two headings read alike, the source gives them in different places.

One data set concerns HEL. As to the kind of experiment: alamarBlue growth inhibition, HEL. The format is cell-based. The following applies: Homo sapiens, 48h, mean of 2 independent assays ± SD. On the procedure:
(§1) Cytotoxicity was assessed using alamarBlue assays (Life Technologies, Grand Island, NY) following manufacturer’s guidelines. Cell death was verified by Annexin V/7-aminoactinomycin D (7AAD) staining (BioLegend, San Diego, CA) per manufacturer’s guidelines.
On the technique in general: Alamar Blue is a resazurin reagent that responds to reducing activity.

A further data set relates to KG1a. Kind of data set: alamarBlue growth inhibition, KG1a. It is filed as cell-based. The following applies: Homo sapiens, KG-1a, 48h, mean of 2 independent assays ± SD. The method, then:
as §1

The nature of data set [1]: Plasma pharmacokinetics after oral dosing in NRG mice. It is filed as in vivo. The following applies: mouse; for Vd/F: read-out: Vz/F. The method, then:
Mice were dosed orally with ART631 at empirically determined maximally tolerated doses (MTDs) of 75 mg/kg ART631 as a single dose alone or 15 mg/kg as a multiple dose regimen (once daily x5), either alone or in combination with SOR (30 mg/kg/d) and VEN (150 mg/kg/d), for side-by-side comparison to the ART838, SOR and VEN combination evaluated previously ([20]). ART631, SOR, and VEN were mixed in vehicle and given as a single administration. Mice (n = 3/time point) were euthanized at 0.5, 1, 1.5, 2, 3, 4, 6, 8 and 12 h after dosing. ART631 was quantified in plasma as described below. Pharmacokinetic parameters were calculated from mean concentration-time data using non-compartmental methods in Phoenix WinNonlin version 8.3 (Certara, Princeton, NJ). The maximum plasma concentration (Cmax) and time to Cmax (Tmax) were the observed values. The AUClast was calculated using the log-linear trapezoidal method. AUC was extrapolated to infinity (AUCINF) by dividing the last quantifiable concentration by the terminal disposition rate constant (λz). The λz was determined from at least 3 points on the slope of the terminal phase of the concentration-time profile. The terminal half-life (T1/2) was determined by dividing 0.693 by λz. Apparent clearance (Cl/F) was calculated by dividing the dose administered by AUCINF. Apparent volume of distribution (V/F) was calculated by dividing Cl/F by λz. If the percent AUC extrapolated was >20% or the r^2 of λz was <0.85, the AUCINF, Cl/F, T1/2 and V/F were not reported.
The Method of Bailer was used to estimate the variance of AUC given the calculated variance of the mean concentration at each time point ([23]). A pairwise comparison utilizing Z test was used to determine whether there was a significant difference between ART631 exposures as expressed by AUClast ([24]). In all cases, p < 0.05 was considered statistically significant.
ART631 was extracted from 25 µL plasma or microsomal solutions with 100 µL acetonitrile containing artemisinin (i.e. the natural product) as internal standard. […] Mobile phase A was ammonium acetate (2mM) containing 0.1% formic acid, and mobile phase B was acetonitrile containing 0.1% formic acid. The gradient started with mobile phase B and was held at 40% for 0.5 minutes with a flow rate of 0.4 mL/min, then increased to 100% over 1.5 minutes and held for 2.0 minutes, and finally returned back to 40% mobile phase B and allowed to equilibrate for 2.0 minutes. An AB Sciex 5500 triple quadrupole mass spectrometer operated in positive electrospray ionization mode was used for the detection of ART631. For stability studies, the ratio of ART631 to the internal standard, artemisinin, was assessed. Calibration curves for ART631 were computed using the ratio of the peak area to that of the internal standard by using a quadratic equation with a 1/x^2 weighting function over the range of 8-1585 nM with dilutions of up to 1:10 (v/v).

The test system of a further data set is 10 human AML cell lines. As to the kind of experiment: alamarBlue growth inhibition, panel of 10 human AML cell lines. The format is cell-based. On the procedure:
as §1
Cell lines with adverse risk cytogenetic and molecular features, e.g. MLL rearrangements (ML2, MOLM14, MV4;11, THP1), FLT3-ITD (MOLM14, MV4;11), TP53 mutations (KG1a, ML2, THP1, U937), and NRAS/KRAS mutations (ML2, THP1), were among those exquisitely sensitive to ART631, with IC50s < 50 nM. The K562 cell line was the only exception, as it was resistant to all 3 of these ARTs. Based on this in vitro activity data combined with the drug stability data described below, ART631 was prioritized over ART576 for further in vitro and in vivo antileukemic efficacy experiments here ( Table 2 ).

The mark [2] stands for this setting: 15 mg/kg/day, NRG mice plasma, 15 mg/kg/d PO qd x 5 alone, after 5th dose.
[3] abbreviates: NRG mice plasma, 15 mg/kg/d PO qd x 5 in SAV (SOR 30 mg/kg/d, VEN 150 mg/kg/d), after 5th dose.
Setting [4] is: NRG mice plasma, 75 mg/kg PO x 1.

In the case of `C=CCO/N=C(/C[C@H]1O[C@@H]2O[C@@]3(C)CC[C@H]4[C@H](C)CC[C@@H]([C@H]1C)[C@@]24OO3)[C@H]1O[C@@H]2O[C@@]3(C)CC[C@H]4[C@H](C)CC[C@@H]([C@H]1C)[C@@]24OO3` [ART631], the IC50 was 0.045 ± 0.005 µM with HEL; 0.029 ± 0.002 µM with KG1a; below 0.05 µM in the data set on 10 human AML cell lines (Homo sapiens, ML2, MOLM14, MV4;11, THP1, KG1a, U937, read-out: IC50s in cell lines with adverse risk cytogenetic and molecular features); 0.02 to 0.045 µM in the data set with 10 human AML cell lines (range over the inhibited cell lines of 10 human AML cell lines, read-out: IC50 range). In addition, the half-life in data set [1] (NRG, plasma, oral, ART631 alone, single and multiple dose regimens, read-out: half-life) is 1.1 to 1.7 h; in data set [1] (15 mg/kg/day, NRG mice plasma, 15 mg/kg/d PO qd x 5 alone, after 5th dose, read-out: T1/2 (converted)), 1.7 h; in data set [1] (NRG mice plasma, 15 mg/kg/d PO qd x 5 in SAV (SOR 30 mg/kg/d, VEN 150 mg/kg/d), after 5th dose, read-out: T1/2 (converted)) it was 2.4 h; in data set [1] (NRG mice plasma, 75 mg/kg PO x 1, read-out: T1/2 (converted)), 1.1 h. For the same compound, the AUC(0-t) is 2.74 µM·h in data set [1] (setting [2]), 3.73 µM·h in data set [1] (setting [3]) and 22.9 µM·h in data set [1] (setting [4]). Also, the CL/F was 145 mL/min/kg in data set [1] (setting [2]), 102 mL/min/kg in data set [1] (setting [3]) and 86.7 mL/min/kg in data set [1] (setting [4]). The Cmax was 935 nM in data set [1] (setting [2]), 719 nM in data set [1] (setting [3]) and 13100 nM in data set [1] (setting [4]). The values for the time to peak (Tmax) in data set [1] (setting [2]), in data set [1] (setting [3]) and in data set [1] (setting [4]) were 2 h, 2 h and 1.5 h, respectively. The figures for the Vd/F in data set [1] (setting [2]), in data set [1] (setting [3]) and in data set [1] (setting [4]) were 21.5 L/kg, 21.3 L/kg and 8.4 L/kg, respectively. Also, the “number of human AML cell lines whose growth was inhibited” value with 10 human AML cell lines (of 10 human AML cell lines tested) is listed as 9.

For orientation: AUC(0-t) means exposure summed from dosing to a finite time, without extrapolation to infinity. What is called CL/F is clearance divided by bioavailability, as obtained after extravascular dosing. In general, Cmax refers to the highest concentration seen after dosing. Usually Tmax stands for the time at which the peak concentration occurs.
